# Test results reported in PMC10247784, “Physiological activation of human and mouse bitter taste receptors by bile acids” (Communications Biology, 2023).
# Values joined by “and” are separate entries in the source; they are usually repeats but may differ in a detail not shown here. Equal values may be shown once.
# Experiments:
# human TAS2R39 = biological target: T1, human TAS2R39 (Homo sapiens, UniProt P59534); assay: Calcium imaging assay (FLIPR), HEK293T-Gα16gust44 cells transfected with human TAS2R39; assay type: cell-based; settings: for Δ F/F / Efficacy = maximal amplitude (ΔF/F) / Efficacy (maximal amplitude ΔF/F), individual data points: TAS2R39; for Efficacy = maximal amplitude (ΔF/F) / Efficacy (maximal amplitude ΔF/F), individual data points: bile acids; for Efficacy = maximal amplitude (ΔF/F): mean; for Efficacy (maximal amplitude ΔF/F), individual data points: single replicates; for Activation threshold concentration TAS2R39: lowest concentration with significantly increased fluorescence vs empty vector (p < 0.01)
# T1 construct: expressed in transfected cells; host or cells: HEK293T-Gα16gust44
# T1 sequence (P59534 1-338): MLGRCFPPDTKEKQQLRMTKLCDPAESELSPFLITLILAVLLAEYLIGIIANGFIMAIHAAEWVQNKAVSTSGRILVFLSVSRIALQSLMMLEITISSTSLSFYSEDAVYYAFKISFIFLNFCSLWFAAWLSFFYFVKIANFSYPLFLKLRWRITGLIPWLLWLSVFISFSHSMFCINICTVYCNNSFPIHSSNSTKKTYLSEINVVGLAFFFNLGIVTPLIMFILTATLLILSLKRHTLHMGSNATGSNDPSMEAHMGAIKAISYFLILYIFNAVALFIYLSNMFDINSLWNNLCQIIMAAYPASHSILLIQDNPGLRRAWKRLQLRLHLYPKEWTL
# Description: This set of bile acids was chosen because of their commercial availability in high purities, their diversity within the class of bile acids and their previous detection and quantitation in human blood. Stock solutions were prepared in DMSO.
# As basal growth medium for the HEK293T-Gα16gust44 cell line[17],[59] served Dulbecco’s modified eagle medium (DMEM) (Thermo Fisher Scientific, Darmstadt, Germany) supplemented with 10 % fetal bovine serum (Sigma-Aldrich, Steinheim, Germany), 2 mM L-glutamine (Sigma-Aldrich, Steinheim, Germany), 100 units/ml penicillin (Sigma Aldrich, Steinheim, Germany) and 100 µg/ml streptomycin (Sigma Aldrich, Steinheim, Germany). Growth conditions were 37 °C, 5 % CO2 and saturated air-humidity[60].
# HEK293T-Gα16gust44 cells were seeded on poly-D-lysine (10 µg/ml) coated 96-well plates to reach a confluence of 40-60 % the next day. For transient transfection 150 ng of plasmid DNA containing the receptor of interest and 0.3 µl lipofectamine 2000 (Thermo Fisher Scientific, Darmstadt, Germany) per well were used and transfection took place according to the manual of lipofectamine 2000. […] The empty vector DNA (mock) was transfected as negative control[14],[41].
# Cells were loaded using the calcium-sensitive fluorescent dye Fluo-4-AM (Abcam, Cambridge, Great Britain) in the presence of 2.5 mM probenecid (Sigma-Aldrich, Steinheim, Germany) the day after transfection[13],[41]. 1 h after loading, cells were washed with C1 buffer using a BioTek Cell Washer, incubated in the dark for half an hour and washed again. For automated agonist application and measurement of fluorescence changes, a FLIPR^TETRA device (Molecular Devices, San José, United States) was used. Viability of cells was tested by application of 100 nM Somatostatin 14 (Bachem, Bubendorf, Switzerland)[42].
# Measured data were negative control corrected by subtracting the signal of the mock-transfected cells and exported to Microsoft Excel using the FLIPR software ScreenWorks 4.2. In Microsoft Excel software, standardization of maximum fluorescence intensities to the basal fluorescence and normalization to the buffer-only control was done to calculate the relative fluorescence changes (ΔF/F).
# Initial screening experiments performed in duplicate wells were confirmed by at least one replication and representative traces were selected for display. All dose-response relationships were determined by three independent experiments (biological replicates) performed in duplicates (technical replicates). Threshold concentrations, defined as lowest substance concentrations leading to statistically significant elevated fluorescence changes in receptor-transfected cells compared with empty vector-transfected cells, were determined using SigmaPlot with Student’s t-test to evaluate statistical significance (p < 0.01).
# [1] = system: T2R02 of Latimeria chalumnae; design: method as in PMID 33355666; settings: cited from earlier work
Compound,"Δ F/F (human TAS2R39; Conc. 0,01 mM)","Δ F/F (human TAS2R39; Conc. 0,1 mM)","Δ F/F (human TAS2R39; Conc. 0,03 mM)","Δ F/F (human TAS2R39; Conc. 0,3 mM)","Δ F/F (human TAS2R39; Conc. 0,001 mM)",Δ F/F (human TAS2R39; Conc. 1 mM),"Δ F/F (human TAS2R39; Conc. 0,003 mM)",Efficacy = maximal amplitude (ΔF/F) (human TAS2R39),Activation threshold concentration TAS2R39 (human TAS2R39) [µM],Activation of T2R02 [1],also measured
"C[C@H](CCC(=O)NCC(=O)O)[C@H]1CC[C@H]2[C@@H]3[C@H](O)C[C@@H]4C[C@H](O)CC[C@]4(C)[C@H]3C[C@H](O)[C@]12C [Glycocholic Acid, glycocholic acid]",0.001299,0.005941,0.007895,0.02136,0.004486,0.1303,0.004867,0.1303,300,activate,"Efficacy (maximal amplitude ΔF/F), individual data points (human TAS2R39; listed as GCA): 0.1116 and 0.125 and 0.1542"
"C[C@H](CCC(=O)NCCS(=O)(=O)O)[C@H]1CC[C@H]2[C@@H]3[C@H](O)C[C@@H]4C[C@H](O)CC[C@]4(C)[C@H]3C[C@H](O)[C@]12C [Taurocholic Acid, taurocholic acid]",0.002616,0.007681,0.00381,0.02945,-0.001111,0.155,0.0008114,0.155,300,–,"Efficacy (maximal amplitude ΔF/F), individual data points (human TAS2R39; listed as TCA): 0.1385 and 0.1739 and 0.1528"
"C[C@H](CCC(=O)O)[C@H]1CC[C@H]2[C@@H]3[C@H](O)C[C@@H]4C[C@H](O)CC[C@]4(C)[C@H]3C[C@H](O)[C@]12C [Cholic Acid, cholic acid]",–,–,–,–,–,–,–,0.2007,300,–,"Efficacy (maximal amplitude ΔF/F), individual data points (human TAS2R39; listed as CA): 0.15 and 0.2304 and 0.2216"
"C[C@H](CCC(=O)NCCS(=O)(=O)O)[C@H]1CC[C@H]2[C@@H]3CC[C@@H]4C[C@H](O)CC[C@]4(C)[C@H]3CC[C@]12C [Taurolithocholic Acid, taurolithocholic acid]",–,–,–,–,–,–,–,–,–,activate,–
"C[C@H](CCC(=O)O)[C@H]1CC[C@H]2[C@@H]3[C@H](O)C[C@@H]4C[C@H](O)CC[C@]4(C)[C@H]3CC[C@]12C [Chenodeoxycholic Acid, chenodeoxycholic acid]",–,–,–,–,–,–,–,–,–,activate,–
"C[C@H](CCC(=O)O)[C@H]1CC[C@H]2[C@@H]3CC[C@@H]4C[C@H](O)CC[C@]4(C)[C@H]3C[C@H](O)[C@]12C [Deoxycholic Acid, deoxycholic acid]",–,–,–,–,–,–,–,–,–,activate,–
